Here are results for four molecules from ChEMBL document CHEMBL1158190, “New Tetracyclic Sesterterpenes from Cydonia vulgaris” (J Nat Prod, 1996).

Calls of active or inactive are those of the source. The calls are words filed in the database; no cut-off is given here.

The test system of this experiment is Human immunodeficiency virus 1. As to the kind of experiment: Antiviral activity against 10 CCID50 units of HIV1 infected in human C8166 cells at 2.5 ug/mL after 5 to 7 days. In kind it is functional, organism-based.
With `CC1(C)CCC[C@]2(C)[C@H]3CC[C@@](O)(CO)[C@H](CC(O)C4=CC(=O)OC4OC(=O)/C=C/c4ccccc4)[C@]3(C)CC[C@@H]12` (some centres undefined), the outcome was inactive.
Turning to `CC(=O)OC1OC(=O)C=C1C(O)C[C@H]1[C@](O)(CO)CC[C@@H]2[C@@]3(C)CCCC(C)(C)[C@@H]3CC[C@]21C` (some centres undefined), the result was inactive.
Regarding `CC(=O)OC[C@]1(O)CC[C@@H]2[C@@]3(C)CCCC(C)(C)[C@@H]3CC[C@@]2(C)[C@H]1CC(O)C1=CC(=O)OC1OC(C)=O` (some centres undefined), the outcome was inactive.
With `CC(=O)OC[C@]1(O)CC[C@@H]2[C@@]3(C)CCCC(C)(C)[C@@H]3CC[C@@]2(C)[C@H]1CC(O)C1=CC(=O)OC1OC(=O)/C=C/c1ccccc1` (some centres undefined) the entry was “inactive”.
